From a melting point compilation (Tetko et al.; mined from patent text by program, amines drawn as free bases though some values may be those of a salt)

Row | melting point [°C] | Compound
1 | 119 to 120 | O=C(CCN1CCN(c2ncc(F)cn2)CC1)Cc1ccc(F)c2ccccc12
2 | 198 to 203 | C#CCN(Cc1ccc2nc(C)[nH]c(=O)c2c1)c1ccc(C(=O)NCC(OC(C)=O)c2ccc([N+](=O)[O-])cc2)cc1 (centres undefined)
3 | 185 to 186 | CC(=O)Oc1cc2ccccc2cc1C(=O)O
4 | 74 to 80 | COc1ccccc1NC(=O)c1sccc1S(=O)(=O)Nc1onc(C)c1Br
5 | 111 to 113 | COC(=O)c1ccc(C(=O)c2ccccc2)[nH]1
6 | 204 to 205 | Cc1cc(-c2nc3cccnn3c2-c2ccnc(NC(=O)NCCS(C)(=O)=O)c2)ccc1F
7 | 208 | COC(=O)c1cc2cc(C=O)c3ccccc3c2s1
8 | 242 to 246 | O=[PH]1Cc2ccc3ccccc3c2-c2c(ccc3ccccc23)C1
9 | 101 | COc1ccc2c(c1)C(C(=O)O)CC2 (centres undefined)
10 | 71 to 74 | CCOC(=O)c1ccc(N)c(I)c1
11 | 111 to 112 | c1ccc(-c2nc(COc3ccc(CCCn4ccnc4)cc3)co2)cc1
12 | 178 to 180 | CC(C)(C)c1ccc(C2OCC(CO)(NC(=O)c3c(Cl)cccc3Cl)CO2)cc1 (centres undefined)
13 | 99 to 101 | O=C(NCCCC(F)(F)F)c1nc(-c2ccc(Cl)cc2Cl)c(-c2ccc(Cl)cc2)s1
14 | 149 to 152 | Cn1nc(N)c2c(-c3ccccc3)cc(N3CCOCC3)nc21
15 | 202 to 205 | O=C(NC1CCSc2cc(C(=O)O)ccc21)OCc1ccccc1 (centres undefined)
16 | 135 to 148 | CCNC(=O)C1=C([Si](C)(C)C)S(=O)(=O)c2ccccc21
17 | 120 to 124 | Cc1c(SCCN2CCOCC2)ccnc1CSc1nc2cc(C(=O)O)ccc2[nH]1
18 | 136 to 138 | C=Cc1cc(CNC(=O)C(C)=Cc2ccc(C(C)(C)C)cc2)cc(F)c1NS(C)(=O)=O
19 | 280 to 286 | COc1cnc2[nH]cc(/C=C3\N=C(NCC4CC4)NC3=O)c2c1
20 | 280 | Cc1cc(-c2cc(=O)c3cccnc3o2)cc(C)c1OCC(=O)O
21 | 102 to 104 | N#Cc1cccc(-c2nc(S(=O)(=O)C(F)(F)F)cc3cccnc23)c1

Row | melting point [°C] | Compound
22 | 220 to 223 | COC(=O)c1ccc2c(c1)C1(O)C(=O)c3ccccc3C1(O)O2 (centres undefined)
23 | 145 to 146 | C/C(=C\Cn1oc(=O)[nH]c1=O)c1cccc(OCc2nc(-c3ccc(OCC(F)(F)F)cc3)oc2C)c1
24 | 129 to 133 | CCOC(=O)C1=C(OCC)C(OCC)=NS1(=O)=O
25 | 193 to 196 | COCc1nc(OC)c(NS(=O)(=O)c2cccc(Cl)c2Cl)nc1Cl
26 | 103 | CN(c1cccc2cc(C3=NCC4(CCN(Cc5nccn5C)CC4)S3)[nH]c12)S(=O)(=O)c1cccs1
27 | 219 to 221 | Cc1ccc2c(c1)N(CC(=O)c1ccccc1C)C(=O)C(NC(=O)Nc1cccc(C(=O)O)c1)CN2C(=O)c1ccco1 (centres undefined)
28 | 89 to 91 | Cc1nc(-c2ccc(N)c(C#N)c2)c[nH]1
29 | 157 to 158 | O=c1oc(OCCBr)c(Cl)c2ccc(NC(=S)Nc3ccccc3)cc12
30 | 185 to 190 | O=C(O)c1ccccc1-c1c2ccc(=O)cc-2oc2cc(O)ccc12
31 | 210 to 211 | O=C(O)COc1cccc2c1CC(S(=O)(=O)Cc1ccccc1)c1sc(-c3ccc(F)cc3)nc1-2 (centres undefined)
32 | 211 | CC(=O)Nc1nc2c(Oc3cc(-c4ccc(C(F)(F)F)cc4)nc(N4CCN(C(=O)OC(C)(C)C)CC4)n3)cccc2s1
33 | 281 to 282 | N#Cc1ccc(-c2cccc(-c3nc4cc(C#N)ccc4[nH]3)c2)nc1
34 | 233 to 236 | O=C(Nc1cccc(-c2ccnc3c(C(=O)c4cccs4)cnn23)c1)NC1CCCCC1
35 | 151 to 152 | CCC(=O)Nc1cnc2ccccc2c1Cl
36 | 47 to 49 | CN(C)CCCOc1ccc(-c2nnc(CSCCOc3ccccc3)o2)nc1
37 | 58 to 61 | Cn1nnc(-c2cccc(Oc3cccc(C(F)(F)F)c3)n2)n1
38 | 120 | O=C(Nc1cccc(C(F)(F)F)c1)N1CCCCc2cc(Oc3cc(Cl)ncn3)ccc21
39 | 119 to 123 | COc1cc2ccccc2c(OC)c1C(=O)O
40 | 125 to 130 | COC(=O)C1=C(C)NC(C)=C(C(=O)OCCCCl)C1c1cccc([N+](=O)[O-])c1 (centres undefined)
41 | 166 | CCOC(=O)c1cn(CC)c2cc(Cl)c(Br)cc2c1=O

The remaining lines, values behind:

Row | Compound | melting point [°C]
42 | N#CN=c1ccccn1Cc1ccccc1 | 139 to 140
43 | CN1CCN(C2=Nc3ccccc3Sc3nccn32)CC1 | 145 to 147
44 | CCN(CC)C(=O)NC1CC2c3cccc4[nH]c(CCc5ccc(OC)cc5)c(c34)CC2N(C)C1 (centres undefined) | 147 to 149
45 | O=C(CCl)N1CC(c2ccccc2)c2ccccc21 (centres undefined) | 76 to 78
46 | N#CC(C#N)=C(N)NCCCc1ccccc1 | 165 to 167
47 | OC(CN1CCNC1=S)c1cccc(Cl)c1 (centres undefined) | 128
48 | CCOC(=O)N1CCN(C(C#N)c2ccc(OC)c(OC)c2OC)CC1 (centres undefined) | 138 to 139
49 | O=C(NCC1CC1)c1cc2nccnc2c(Cl)c1NC(=O)c1cc(C(F)(F)F)nn1-c1ncccc1Cl | 180 to 183
50 | Fc1ccc(-c2cnn3cnnc3n2)cc1 | > 300
51 | CC(/C=C/c1c(C)sc(C)c1C)=C(F)\C=C\C(C)=C\C(N)=O | 212 to 215
52 | c1ccc2c(c1)COc1ccccc1-2 | 97
53 | Cc1ccc(-c2ncc3c(n2)CCCC3)nc1Br | 125 to 128
54 | O=c1ncc(Cl)cn1Cn1cc(Cl)cnc1=O | 260
55 | O=P(O)(O)Oc1cccc(-c2nc3sccn3c2-c2cccc(N[C@@H]3CCCN(S(=O)(=O)c4ccc(Cl)cc4)C3)c2)c1 | 239 to 245
56 | CC(=NO)C1=CCCN(Cc2ccccc2)C1 | 103 to 105
57 | CCCCC(=O)NNC(=O)c1ccc([N+](=O)[O-])cc1 | 185 to 187
58 | CCOCCNC(=O)n1sc(OCC)nc1=O | < 50

Row | Compound | melting point [°C]
59 | O=[N+]([O-])c1cc2nc(O)c(O)nc2c2[nH]nnc12 | > 300
60 | CCOC(=O)c1sc(NC(C)=O)c(C(=O)OCC)c1C | 130 to 131
61 | c1cnnc(N2CCN(CCCOc3ccc(C4=NCCO4)cc3)CC2)c1 | 145
62 | CN1CCN2C(=O)c3ccccc3C12c1ccccc1 (centres undefined) | 120 to 122
63 | Fc1ccc(NCc2ccc(NCc3ccccc3)nc2)nc1 | 166 to 168
64 | CC(C)OC(=O)c1cc(N=c2sc(=O)n3n2CCCC3)c(F)cc1F | 86 to 88
65 | NC(=O)C(O)(C(N)=O)c1ccccc1 | 159
66 | C1=C(c2c[nH]c3ccccc23)CN(Cc2ccccc2)CC1 | 105 to 107
67 | CCC(O)=C1SC(=S)N(c2ccc(Cl)cc2)C1=O | 145 to 149
68 | Cc1ccc(OCC#CI)cn1 | 155 to 157
69 | O=[N+]([O-])c1cnc2sccc2c1Cl | 110 to 113
70 | CSc1cnc(Cl)c(Cl)c1 | 66 to 67
71 | CSc1nc2ccccc2n1C1CCN(CCCC(=O)c2ccc(F)cc2)CC1 | 98 to 98.5
72 | COc1ccc(C(O)(Cc2ccncc2)c2ccccc2)cc1OC1CCCC1 (centres undefined) | 148 to 149
73 | COc1nc(C)cnc1N | 75 to 76.5
74 | CCOC(=O)N1CCCN(c2nc3ccccc3[nH]2)CC1 | 161 to 162
